From US7998977B2, “Inhibitors of AKT (protein kinase B)” (Eli Lilly and Company, priority 2006, dated 2011)
Counter-ions that a name gives are not always drawn.

How the values were obtained:
[1] = Effect of initial solution pH on rate of precipitation; format: physicochemical; details: room temperature
From the text: A pharmaceutical composition of 4-[5-(2-amino-ethanesulfonyl)-isoquinolin-7-yl]-phenol monohydrochloride hemihydrate comprises a non-reducing sugar and a pH adjusting agent. […] […]. Also, the rate at which precipitation takes place is pH dependent.

[2] = tested on: Phospho-GSK3b (pGSK3b), a target of Akt in cells; experiment: Cell-based ELISA (cELISA) for detection of phospho-GSK3b in U87MG cells; details: Homo sapiens, U-87 MG, 2 hr treatment, n=8, read-out: IC50, inhibition of pGSK3b
Protocol: Cell-Based ELISA (cELISA) for the Detection of Phospho-GSK3b (pGSK3b)
Exponentially grown U87MG cells derived from a human glioblastoma are seeded into 96-well plates and incubated overnight at 37° C. with 5% CO2. Ten concentrations of the compound of Example 1 are prepared from a 4 mM stock (in 100% DMSO) by 1:2 serial dilutions into the culture media. Equal volume of each of the serial dilutions is added directly to the cells. Treatment is stopped 2 hr later. At the end of the treatment, the culture media is removed, and the cells are washed once with ice-cold phosphate-buffered saline (PBS). The cells are fixed in PREFER according to vendor's procedure, followed by rinses in PBS/0.1% SDS and PBS/0.1% Triton X-100®, then overnight incubation in SEA Block Blocking buffer. The blocking step is followed by an overnight incubation of the cells with a rabbit antibody against pGSK3b/Ser9, followed by a goat anti-rabbit IgG. The pGSK3b is detected by SuperSignal ELISA Femto following the vendor's procedure.

[3] = target: T1, Active human recombinant Akt1 (full-length) (Homo sapiens, UniProt P31749); experiment: Akt1 Phosphorylation Assay (competitive fluorescence polarization immunoassay, FPIA); format: biochemical; details: 20 μM ATP, 60 min at room temperature, n=3; read-out: IC50, inhibition of Akt1 phosphorylation
T1 construct: Active human recombinant Akt1 (full-length) purified from Sf9 insect cells; purchased Upstate Biotechnology, Inc; host or cells: Sf9 insect cells
From the text: Akt1 Phosphorylation Assay
The assay measures the phosphorylation of PKC alpha pseudo-substrate peptide by a Competitive Fluorescence Polarization Immunoassay (FPIA). The assay indirectly measures the concentration of phospho-peptide product formed in a reaction by measuring the change in the intensity of polarized light emitted from a fluorescently-labeled tracer peptide when displaced from a phospho-specific antibody by the phospho-peptide product. Calibration with a standard curve yields quantitative results.
Active human recombinant Akt1 (full-length) purified from Sf9 insect cells is obtained from Upstate Biotechnology, Inc. Peptide Substrate (M.W.1561) is purchased. […]
After 60 min at room temperature the reaction is terminated by adding 25 μL of Quench/Detection Mix containing 260 mM EDTA, 3.4 nM Fluorescein Tracer, and 7.5 nM Anti-Phosphoserine Antibody. The plates are incubated in darkness at room temperature for more than 3 hr, and then fluorescence polarization (at λex=485 nm, […]) is read using a Tecan Ultra plate reader. The concentration of phosphorylated product per well is calculated from millipolarization (mP) units using a prepared peptide competitor dilution series as a standard curve.

[4] = tested on: H1155 cells derived from human non-small cell lung cancer; experiment: In vivo tumor growth inhibition, H1155 non-small cell lung cancer xenograft; design: species or system nude mice; details: continuous infusion of 24 mg/kg/day for 4 days, measured at the end of the assay
Protocol: (§1) In Vivo Tumor Growth Inhibition Studies
(§2) Exponentially growing U87MG cells derived from a human glioblastoma or H1155 cells derived from human non-small cell lung cancer are implanted subcutaneously in the rear flank of nude mice. Three days after tumor cell implants, microsurgery is performed to cannulate catheter for continuous infusion via jugular vein. Example 1, formulated in D5W (5% dextrose in water) at various concentrations, is then infused into mice next day at 40 μL/hr for 4 days. Tumors are measured twice weekly until the study is terminated, usually at 24 days after the initial implants. Tumor growth inhibition is calculated by dividing the average tumor volume of the treated group by that of the vehicle-treated group.

Phospho-GSK3b (pGSK3b) = experiment: In vivo target inhibition by a single IV injection, U87MG tumors in nude mice; details: Mus musculus, U-87 MG, U87MG glioblastoma tumors, single IV injection of 25 mg/kg, at 1 hour, read-out: inhibition of pGSK3b in tumor
Protocol: In Vivo Target Inhibition Studies
In Vivo Target Inhibition by a Single IV Injection:
Exponentially growing U87MG cells derived from a human glioblastoma are implanted subcutaneously in the rear flank of nude mice. When the tumors reach the size of 200-250 mm^3, compounds are administered to the animals by a single IV injection in a dose-response study or in a time-course study. At the end of each treatment, animals are asphyxiated with CO2. Tumors are harvested by surgical excision, quickly frozen in liquid nitrogen and stored at −80° C. until analysis. Sera are prepared from blood harvested from the heart by cardiac puncture and stored at −80° C. until analysis.
The Akt inhibitor is extracted from serum with acetonitrite/methanol and analyzed alongside an internal standard by LC/MS/MS. Tumors are homogenized in 2 volumes of a lysis buffer containing 25 mM Tris (pH 7.5), Roche complete protease inhibitors, and 1 mM vanadate with Powergen 125 homogenizer, then sequentially passed thorough an 18 gauge needle and a 23 gauge needle. Soluble cytoplasmic extracts are collected from the supernatant fraction after the lysates are centrifuged for 30 minutes at 20,000×g. Protein concentrations in the cytoplasmic extracts are determined with a BCA kit. Phospho-GSK3b (pGSK3b) in the soluble extracts is analyzed with the ELISA Kit.

[5] = tested on: U87MG cells derived from a human glioblastoma; experiment: In vivo tumor growth inhibition, U87MG glioblastoma xenograft; design: species or system nude mice; details: continuous infusion of 27 mg/kg/day for 4 days, measured at the end of the assay
Protocol: as §1, §2

T1 sequence (P31749 whole entry): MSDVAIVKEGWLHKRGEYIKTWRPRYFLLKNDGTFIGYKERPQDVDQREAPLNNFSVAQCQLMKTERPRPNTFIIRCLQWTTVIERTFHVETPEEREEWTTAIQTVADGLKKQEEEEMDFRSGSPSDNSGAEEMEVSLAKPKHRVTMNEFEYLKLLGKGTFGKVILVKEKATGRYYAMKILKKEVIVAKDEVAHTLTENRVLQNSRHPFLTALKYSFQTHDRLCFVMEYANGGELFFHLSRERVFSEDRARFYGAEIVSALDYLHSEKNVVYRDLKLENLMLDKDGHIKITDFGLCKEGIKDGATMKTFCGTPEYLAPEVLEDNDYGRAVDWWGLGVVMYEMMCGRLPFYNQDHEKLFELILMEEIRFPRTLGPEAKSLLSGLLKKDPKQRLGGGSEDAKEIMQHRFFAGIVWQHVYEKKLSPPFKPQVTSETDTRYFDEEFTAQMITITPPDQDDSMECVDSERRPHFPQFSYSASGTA

Cl.Cl.NCCS(=O)(=O)c1cc(-c2ccc(O)cc2)cc2cnccc12.NCCS(=O)(=O)c1cc(-c2ccc(O)cc2)cc2cnccc12.O [4-[5-(2-Amino-ethanesulfonyl)-isoquinolin-7-yl]-phenol Monohydrochloride Hemihydrate]
Precipitation (ppt) ([1]; 0.001 N HCl/3% mannitol, initial pH 4.20, approx. 15 mg/mL): ppt after 24 hr
Precipitation (ppt) ([1]; 0.0025 N HCl/3% mannitol, initial pH 3.91, approx. 15 mg/mL): ppt after 36 hr
Precipitation (ppt) ([1]; 0.005 N HCl/3% mannitol, initial pH 3.58, approx. 15 mg/mL): ppt after 48 hr
Precipitation (ppt) ([1]; 0.01 N HCl/3% mannitol, initial pH 3.19, approx. 15 mg/mL): no ppt up to 96 hours
Precipitation (ppt) ([1]; 0.05 N HCl/3% mannitol, initial pH 1.68, approx. 15 mg/mL): no ppt up to 96 hours

NCCS(=O)(=O)c1cc(-c2ccc(O)cc2)cc2cnccc12 [Example 1, 4-[5-(2-Amino-ethanesulfonyl)-isoquinolin-7-yl]-phenol di-hydrochloride Salt]
IC50 [2]: 2040 nM
IC50 [3]: 45 nM
tumor growth inhibition [4]: 63%
inhibition at 25 mg/kg (Phospho-GSK3b (pGSK3b)): 76%
tumor growth inhibition [5]: 50%
